Measured values reported in patent US10485235B2, “Aryloxypyrimidinyl ethers as herbicides” (FMC Corporation, priority 2015, dated 2019).

Tests used:
Format in all cases: in vivo
[1] = tested on: galium (catchweed bedstraw, Galium aparine); experiment: Test A postemergence, galium; settings: Galium, post-emergence, 240 h, postemergence, 0 to 100 scale, 0 is no effect, 100 is complete control, approximately 10 days, read-out: Plant response rating, Galium; for pest or weed control at 31 g/ha: 31 g ai/ha; for pest or weed control at 125 g/ha: 125 g ai/ha
In short: (§1)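 Test chemicals in a solvent/surfactant mixture were applied as a preemergence directed soil spray on seeded loam–sand, or postemergence to plants 2–10 cm tall at the one- to two-leaf stage. After roughly 10 days in a greenhouse, injury was visually rated versus untreated controls on a 0 (no effect) to 100 (complete control) scale.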

[2] = tested on: sedge, umbrella (small-flower umbrella sedge, Cyperus difformis); experiment: Test B flooded paddy test, umbrella sedge; settings: Cyperus difformis; 250 g ai/ha, Flood; visual rating after 13 to 15 days; scale 0 to 100, 0 is no effect, 100 is complete control; read-out: Plant response rating, Sedge, Umbrella
In short: (§2)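 Plants grown to the 2-leaf stage; pots flooded to 3 cm above soil and compounds applied directly into the paddy water, depth held throughout. After 13 to 15 days in the greenhouse, injury was rated visually against untreated controls on a 0–100 scale (0 no effect, 100 complete control).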

[3] = tested on: ryegrass, Italian (Italian ryegrass, Lolium multiflorum); experiment: Test A preemergence, Italian ryegrass; settings: Lolium multiflorum, pre-emergence, 240 h, Preemergence, 0 to 100 scale (0 no effect, 100 complete control), read-out: Plant response rating, Ryegrass, Italian; for pest or weed control at 31 g/ha: 31 g ai/ha; for pest or weed control at 125 g/ha: 125 g ai/ha
In short: as §1

[4] = tested on: barnyardgrass (Echinochloa crus-galli); experiment: Test A preemergence, barnyardgrass; settings: Echinochloa crus-galli, pre-emergence, 240 h, Preemergence, 0 to 100 scale (0 no effect, 100 complete control), read-out: Plant response rating, Barnyardgrass; for pest or weed control at 125 g/ha: 125 g ai/ha
In short: as §1

[5] = tested on: blackgrass (Alopecurus myosuroides); experiment: Test A postemergence, blackgrass; settings: Alopecurus myosuroides, post-emergence, 240 h, postemergence, 0 to 100 scale, 0 is no effect, 100 is complete control, approximately 10 days, read-out: Plant response rating, Blackgrass; for pest or weed control at 31 g/ha: 31 g ai/ha; for pest or weed control at 125 g/ha: 125 g ai/ha
In short: as §1

[6] = tested on: ducksalad (Heteranthera limosa); experiment: Test B flooded paddy test, ducksalad; settings: Heteranthera limosa; 250 g ai/ha, Flood; visual rating after 13 to 15 days; scale 0 to 100, 0 is no effect, 100 is complete control; read-out: Plant response rating, Ducksalad
In short: as §2

[7] = tested on: ragweed (common ragweed, Ambrosia elatior); experiment: Test A postemergence, ragweed; settings: Ambrosia artemisiifolia, post-emergence, 240 h, postemergence, 0 to 100 scale, 0 is no effect, 100 is complete control, approximately 10 days, read-out: Plant response rating, Ragweed; for pest or weed control at 31 g/ha: 31 g ai/ha; for pest or weed control at 125 g/ha: 125 g ai/ha
In short: as §1

[8] = tested on: foxtail, giant (giant foxtail, Setaria faberii); experiment: Test A preemergence, giant foxtail; settings: Setaria faberi, pre-emergence, 240 h, Preemergence, 0 to 100 scale (0 no effect, 100 complete control), read-out: Plant response rating, Foxtail, Giant; for pest or weed control at 31 g/ha: 31 g ai/ha; for pest or weed control at 125 g/ha: 125 g ai/ha
In short: as §1

[9] = tested on: wheat (Triticum aestivum); experiment: Test A postemergence, wheat; settings: Triticum aestivum, post-emergence, 240 h, postemergence, 0 to 100 scale, 0 is no effect, 100 is complete control, approximately 10 days, read-out: Plant response rating, Wheat; for plant injury at 31 g/ha: 31 g ai/ha; for plant injury at 125 g/ha: 125 g ai/ha
In short: as §1

[10] = tested on: pigweed (Amaranthus retroflexus); experiment: Test A preemergence, pigweed; settings: Amaranthus retroflexus, pre-emergence, 240 h, Preemergence, 0 to 100 scale (0 no effect, 100 complete control), read-out: Plant response rating, Pigweed; for pest or weed control at 31 g/ha: 31 g ai/ha; for pest or weed control at 125 g/ha: 125 g ai/ha
In short: as §1

[11] = tested on: ryegrass, Italian (Italian ryegrass, Lolium multiflorum); experiment: Test A postemergence, Italian ryegrass; settings: Lolium multiflorum, post-emergence, 240 h, postemergence, 0 to 100 scale, 0 is no effect, 100 is complete control, approximately 10 days, read-out: Plant response rating, Ryegrass, Italian; for pest or weed control at 31 g/ha: 31 g ai/ha; for pest or weed control at 125 g/ha: 125 g ai/ha
In short: as §1

[12] = tested on: barnyardgrass (Echinochloa crus-galli); experiment: Test B flooded paddy test, barnyardgrass; settings: Echinochloa crus-galli; 250 g ai/ha, Flood; visual rating after 13 to 15 days; scale 0 to 100, 0 is no effect, 100 is complete control; read-out: Plant response rating, Barnyardgrass
In short: as §2

[13] = tested on: corn (Zea mays); experiment: Test A postemergence, corn; settings: Zea mays, post-emergence, 240 h, postemergence, 0 to 100 scale, 0 is no effect, 100 is complete control, approximately 10 days; for Corn plant response rating (crop injury, 0 = no effect, 100 = complete kill) at 31 g/ha: 31 g ai/ha; for Corn plant response rating (crop injury, 0 = no effect, 100 = complete kill) at 125 g/ha: 125 g ai/ha
In short: as §1

[14] = tested on: kochia (Kochia scoparia); experiment: Test A preemergence, kochia; settings: Bassia scoparia, pre-emergence, 240 h, Preemergence, 0 to 100 scale (0 no effect, 100 complete control), read-out: Plant response rating, Kochia; for pest or weed control at 31 g/ha: 31 g ai/ha; for pest or weed control at 125 g/ha: 125 g ai/ha
In short: as §1

[15] = tested on: ragweed (common ragweed, Ambrosia elatior); experiment: Test A preemergence, ragweed; settings: Ambrosia artemisiifolia, pre-emergence, 240 h, Preemergence, 0 to 100 scale (0 no effect, 100 complete control), read-out: Plant response rating, Ragweed; for pest or weed control at 31 g/ha: 31 g ai/ha; for pest or weed control at 125 g/ha: 125 g ai/ha
In short: as §1

Row | SMILES | pest or weed control at 31 g/ha [1] [%] | pest or weed control at 125 g/ha [1] [%] | pest or weed control at 250 g/ha [2] [%] | pest or weed control at 31 g/ha [3] [%] | pest or weed control at 125 g/ha [3] [%] | pest or weed control at 125 g/ha [4] [%] | pest or weed control at 31 g/ha [5] [%] | pest or weed control at 125 g/ha [5] [%] | pest or weed control at 250 g/ha [6] [%] | pest or weed control at 31 g/ha [7] [%] | pest or weed control at 125 g/ha [7] [%] | pest or weed control at 31 g/ha [8] [%] | pest or weed control at 125 g/ha [8] [%] | plant injury at 125 g/ha [9] [%] | pest or weed control at 125 g/ha [10] [%] | pest or weed control at 125 g/ha [11] [%] | pest or weed control at 250 g/ha [12] [%] | Corn plant response rating (crop injury, 0 = no effect, 100 = complete kill) at 125 g/ha [13] [%] | pest or weed control at 125 g/ha [14] [%] | pest or weed control at 125 g/ha [15] [%] | other results
1 | N#Cc1cccc(Oc2ncc(Cl)cn2)c1OCCCC(F)(F)F [Compound 5, 3-[(5-chloro-2-pyrimidinyl)oxy]-2-(4,4,4-trifluorobutoxy)benzonitrile] | 80 | 100 | 95 | 20 | 60 | 100 | 30 | 90 | 90 | 10 | 30 | 100 | 100 | 40 | 90 | 40 | 50 | 80 | 100 | 10 | pest or weed control at 31 g/ha ([4]; 31 g ai/ha): 80%; plant injury at 31 g/ha [9]: 20%; pest or weed control at 31 g/ha [10]: 90%; pest or weed control at 31 g/ha [11]: 20%; Corn plant response rating (crop injury, 0 = no effect, 100 = complete kill) at 31 g/ha [13]: 50%; pest or weed control at 31 g/ha [14]: 90%; pest or weed control at 31 g/ha [15]: 10%
2 | CCCCOc1c(C#N)cccc1Oc1ncc(Cl)cn1 [Compound 35, 2-butoxy-3-[(5-chloro-2-pyrimidinyl)oxy]benzonitrile] | – | 90 | 70 | – | 30 | 100 | – | 70 | 65 | – | 10 | – | 100 | 10 | 100 | 40 | 30 | 20 | 100 | 10 | pest or weed control at 500 g/ha ([1]; 500 g ai/ha): 100%; pest or weed control at 500 g/ha ([3]; 500 g ai/ha): 90%; pest or weed control at 500 g/ha ([4]; 500 g ai/ha): 100%; pest or weed control at 500 g/ha ([5]; 500 g ai/ha): 90%; pest or weed control at 500 g/ha ([7]; 500 g ai/ha): 20%; pest or weed control at 500 g/ha ([8]; 500 g ai/ha): 100%; plant injury at 500 g/ha ([9]; 500 g ai/ha): 40%; pest or weed control at 500 g/ha ([10]; 500 g ai/ha): 100%; pest or weed control at 500 g/ha ([11]; 500 g ai/ha): 80%; Corn plant response rating (crop injury, 0 = no effect, 100 = complete kill) at 500 g/ha ([13]; 500 g ai/ha): 70%; pest or weed control at 500 g/ha ([14]; 500 g ai/ha): 100%; pest or weed control at 500 g/ha ([15]; 500 g ai/ha): 30%
3 | FC(F)(F)COc1c(I)cccc1Oc1ncc(Cl)cn1 [Compound 65] | 30 | 50 | 90 | 0 | 10 | 70 | 0 | 30 | 100 | 0 | 0 | 30 | 100 | 0 | 100 | 10 | 20 | 20 | 90 | 0 | plant injury at 31 g/ha [9]: 0%; pest or weed control at 31 g/ha [10]: 50%; pest or weed control at 31 g/ha [11]: 0%; Corn plant response rating (crop injury, 0 = no effect, 100 = complete kill) at 31 g/ha [13]: 10%; pest or weed control at 31 g/ha [14]: 20%; pest or weed control at 31 g/ha [15]: 0%
